One series deals with VEEV (TC-83). Nature of the series: microbe, parasite or virus in culture. The conditions noted are these: Venezuelan equine encephalitis virus, U-87 MG, read-out: EC50, VEEV (TC-83) infection. The format is cell-based.
Another series deals with BLK. The conditions noted are these: cited from earlier work.
The next series deals with JAK. The conditions noted are these: cited from earlier work.
The test system of the next series is ErbB1 (EGFR). The conditions noted are these: read-out: KD of binding or IC50 (nM), ErbB1; cited from earlier work.
In a further series the test system is MAP2K5. The conditions noted are these: cited from earlier work.
Another series relates to ErbB3. The conditions noted are these: cited from earlier work.
Series [1] in a line: in vitro. The conditions noted are these: human.
In another series the test system is ErbB2. The conditions noted are these: cited from earlier work.
In another series the test system is SRMS. The conditions noted are these: cited from earlier work.
The subject of another series is ErbB1. The conditions noted are these: cited from earlier work.
The test system of series [2] is SARS-CoV-2 (USA-WA1/2020). Nature of the series: microbe, parasite or virus in culture. The format is cell-based. The conditions noted are these: Severe acute respiratory syndrome coronavirus 2, Calu-3, read-out: EC50, SARS-CoV-2 infection.
The test system of the next series is BTK. The conditions noted are these: cited from earlier work.
Series [3] is described as follows: in vitro. The conditions noted are these: human. The source holds these as a separate data set.
The subject of the next series is ErbB4. The conditions noted are these: cited from earlier work.

Regarding `C=CC(=O)N1CCC[C@@H](n2nc(-c3ccc(Oc4ccccc4)cc3)c3c(N)ncnc32)C1` [Ibrutinib], the EC50 with VEEV (TC-83) is 0.5 µM; in [2], 0.8 µM. Moreover, the “Other targets: BLK (% of control)” value with BLK is recorded as “JAK (0%), BTK (0%), SRMS (0%), BLK (0.1%), ErbB3 (0.1%), MAP2K5 (0.2%)”. The “Other targets: JAK (% of control)” value in the series with JAK is “JAK (0%), BTK (0%), SRMS (0%), BLK (0.1%), ErbB3 (0.1%), MAP2K5 (0.2%)”. For the same compound, the IC50 in the series with ErbB1 (EGFR) was 1.8 nM. In addition, the “Other targets: MAP2K5 (% of control)” value in the series on MAP2K5 is given as “JAK (0%), BTK (0%), SRMS (0%), BLK (0.1%), ErbB3 (0.1%), MAP2K5 (0.2%)”. Besides, the “Other targets: ErbB3 (% of control)” value with ErbB3 was “JAK (0%), BTK (0%), SRMS (0%), BLK (0.1%), ErbB3 (0.1%), MAP2K5 (0.2%)”. Besides, the CC50 in “in vitro [1]” and in “in vitro [3]” was more than 20 µM throughout. Further, the “% of control, ErbB2” value in the series on ErbB2 was 12.1 nM 0%. The “Other targets: SRMS (% of control)” value in the series with SRMS is listed as “JAK (0%), BTK (0%), SRMS (0%), BLK (0.1%), ErbB3 (0.1%), MAP2K5 (0.2%)”. For the same compound, the “% of control, ErbB1” value in the series with ErbB1 is 1.8 nM 1.8%. The “Other targets: BTK (% of control)” value in the series on BTK was “JAK (0%), BTK (0%), SRMS (0%), BLK (0.1%), ErbB3 (0.1%), MAP2K5 (0.2%)”. In addition, the “% of control, ErbB4” value in the series on ErbB4 is 1.0 nM 0%.

Source of the values: article PMC10541190 (The Journal of Clinical Investigation, 2023).
